For this test, the target named is T1, human GPR40 (Homo sapiens, UniProt O14842).
T1 construct: expressed in transfected cells
T1 sequence (O14842 whole entry): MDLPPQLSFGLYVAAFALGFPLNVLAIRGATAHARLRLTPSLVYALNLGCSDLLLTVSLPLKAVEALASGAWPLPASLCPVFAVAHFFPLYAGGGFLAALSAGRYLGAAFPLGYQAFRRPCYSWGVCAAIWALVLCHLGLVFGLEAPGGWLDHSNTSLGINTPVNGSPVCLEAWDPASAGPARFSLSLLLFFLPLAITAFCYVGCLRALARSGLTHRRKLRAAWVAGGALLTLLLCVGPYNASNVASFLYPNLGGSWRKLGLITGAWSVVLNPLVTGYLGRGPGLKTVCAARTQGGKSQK
Put plainly: Evaluation of human GPR40 agonist activity with increase in intracellular Ca2+ concentration as an index (FLIPR Tetra). In kind it is cell-based. The following applies: test compound 1 μM; CHO(dhfr-) cells stably expressing human GPR40; 100% = activity of 1 μM WO2009/048527 Example 99.2, 0% = DMSO. The protocol:
Evaluation of human GPR40 agonist activity with increase in intracellular Ca^2+ concentration as an index
CHO(dhfr-) cells that stably expressed human GPR40 were suspended in MEMα (Nikken Bio Medical Laboratory) containing 10% dialysis serum (GEMINI BIO-PRODUCTS), 10 mM HEPES (Invitrogen), 100 U/mL penicillin, 100 μg/mL streptomycin (Invitrogen), and plated on a 384 well black/clear cell culture plate at 10,000 cells/well. After culture overnight in a CO2 incubator at 37° C., the culture supernatant was removed, and a loading buffer [dye attached to Calcium 5 Assay Kit (Molecular Devices) was dissolved in an assay buffer (20 mM HEPES, 0.2% fatty acid-free BSA (Sigma-Aldrich), 2.5 mM probenecid (DOJINDO)-containing HBSS (Invitrogen)) added with 0.025% Cremophor EL (DOJINDO)] was added at 37.5 μL/well. After incubation in a CO2 incubator at 37° C. for 1 hr, the cells were stood at room temperature for 15 min, an assay buffer containing the test compound at a final concentration of 1 μM was added at 12.5 μL/well in FLIPR Tetra (Molecular Devices), and the fluorescence amount was successively measured. Human GPR40 agonist activity calculated using an increase in the intracellular Ca^2+ concentration as an index, wherein the activity of 1 μM of the compound described in WO 2009/048527 (WO2009/048527 Example 99.2) was 100%, and the activity when DMSO was added instead of the test compound was 0%.
As for `COc1ccc(F)c(-c2ccc(OCc3cccc(C(CC(=O)O)C4CC4C#N)c3)cc2CC(C)(C)C)c1` (stereo not drawn) [Example 87, 3-(2-cyanocyclopropyl)-3-(3-(((2′-fluoro-5′-methoxy-2-neopentyl-[1,1′-biphenyl]-4-yl)oxy)methyl)phenyl)propanoic acid], the activation at 1 µM turned out to be 98%. Then `COc1cc(-c2ccc(OCc3cccc(C(CC(=O)O)C4CC4)c3)cc2CC(C)(C)C)c(F)cn1` (stereo not drawn) [Example 104, 3-cyclopropyl-3-(3-((3-(2,2-dimethylpropyl)-4-(5-fluoro-2-methoxypyridin-4-yl)phenoxy)methyl)phenyl)propanoic acid], with 105%; and `COc1ccc(F)c(-c2ccc(OCc3cccc(C(CC(=O)O)C4CC4)c3)cc2CCC(C)(C)C)c1` (stereo not drawn) [Example 93, 3-cyclopropyl-3-(3-(((2-(3,3-dimethylbutyl)-2′-fluoro-5′-methoxybiphenyl-4-yl)oxy)methyl)phenyl)propanoic acid], with 106%; and `CCC(C)(CC)Cc1cc(OCc2cccc(C(CC(=O)O)C3CC3)c2)ccc1-c1cc(OC)ccc1F` (stereo not drawn) [Example 112, 3-cyclopropyl-3-(3-(((2-(2-ethyl-2-methylbutyl)-2′-fluoro-5′-methoxybiphenyl-4-yl)oxy)methyl)phenyl)propanoic acid], with 108%. For `CCC(C)(C)C(F)c1cc(OCc2cccc(C(CC(=O)O)C3CC3)c2)ccc1-c1cc(OC)ccc1F` (stereo not drawn) [Example 107, 3-cyclopropyl-3-(3-(((2′-fluoro-2-(1-fluoro-2,2-dimethylbutyl)-5′-methoxybiphenyl-4-yl)oxy)methyl)phenyl)propanoic acid] the value was 126%; for `COc1ccc(F)c(-c2ccc(OCc3cccc(C(CC(=O)O)C(F)(F)C(F)(F)F)c3)cc2CC(C)(C)C)c1` (stereo not drawn) [Example 85, 4,4,5,5,5-pentafluoro-3-(3-(((2′-fluoro-5′-methoxy-2-neopentyl-[1,1′-biphenyl]-4-yl)oxy)methyl)phenyl)pentanoic acid], 96%; for `COc1ccc(F)c(-c2ccc(N(C)Cc3cccc(C(CC(=O)O)C4CC4)c3)cc2CC(C)(C)C)c1` (stereo not drawn) [Example 9, 3-cyclopropyl-3-(3-(((2-(2,2-dimethylpropyl)-2′-fluoro-5′-methoxybiphenyl-4-yl)(methyl)amino)methyl)phenyl)propanoic acid], 103%. Then `CCOC(=O)CC(CC(=O)O)c1cccc(COc2ccc(-c3cc(OC)ccc3F)c(CC(C)(C)C)c2)c1` (stereo not drawn) [Example 81, 5-ethoxy-3-(3-(((2′-fluoro-5′-methoxy-2-neopentyl-[1,1′-biphenyl]-4-yl)oxy)methyl)phenyl)-5-oxopentanoic acid], with 134%; and `COc1ccc(F)c(-c2ccc(OCc3cccc(C(CC(=O)O)C4CC4)c3)cc2C(O)C(C)(C)C)c1` (stereo not drawn) [Example 95], with 107%; and `COc1ccc(F)c(-c2ccc(OCc3cccc(C(CC(=O)O)C4CC4)c3)cc2CCC(C)(C)OC)c1` (stereo not drawn) [Example 92, 3-cyclopropyl-3-(3-(((2′-fluoro-5′-methoxy-2-(3-methoxy-3-methylbutyl)biphenyl-4-yl)oxy)methyl)phenyl)propanoic acid], with 113%. Compound `COc1ccc(F)c(-c2ccc(OCc3cc(C(CC(=O)O)C4CC4)ccn3)cc2CC(C)(C)C)c1` (stereo not drawn) [Example 24, 3-cyclopropyl-3-(2-(((2-(2,2-dimethylpropyl)-2′-fluoro-5′-methoxybiphenyl-4-yl)oxy)methyl)pyridin-4-yl)propanoic acid] came in with an activation at 1 µM of 106%. For `CC(C)(C)Cc1cc(OCc2cccc(C(CC(=O)O)C3CC3)c2)cnc1-c1cc(OC2CCCCO2)ccc1F` (stereo not drawn) [Example 44, 3-cyclopropyl-3-(3-(((5-(2,2-dimethylpropyl)-6-(2-fluoro-5-(tetrahydro-2H-pyran-2-yloxy)phenyl)pyridin-3-yl)oxy)methyl)phenyl)propanoic acid] the value was 3%; for `COc1ccc(F)c(-c2ccc(OCc3cccc(C(CC(=O)O)C4CC4)c3)c(CCCC(C)(C)C)c2)c1` (stereo not drawn) [Example 21, 3-cyclopropyl-3-(3-(((3-(4,4-dimethylpentyl)-2′-fluoro-5′-methoxybiphenyl-4-yl)oxy)methyl)phenyl)propanoic acid], 103%; for `C=CCCC(CC(=O)O)c1cccc(COc2ccc(-c3cc(OC)ccc3F)c(CC(C)(C)C)c2)c1` (stereo not drawn) [Example 43, 3-(3-(((2-(2,2-dimethylpropyl)-2′-fluoro-5′-methoxybiphenyl-4-yl)oxy)methyl)phenyl)hept-6-enoic acid], 107%.

`COc1ccc(F)c(-c2ccc(OCc3cccc(C(CC(=O)O)C4CC4)c3)cc2OC(C)(C)C)c1` (stereo not drawn) [Example 74, 3-(3-(((2-tert-butoxy-2′-fluoro-5′-methoxybiphenyl-4-yl)oxy)methyl)phenyl)-3-cyclopropylpropanoic acid]: the activation at 1 µM was 104%.

Consider `CC(C)Oc1ccc(F)c(-c2ncc(OCc3cccc(C(CC(=O)O)C4CC4)c3)cc2CC(C)(C)C)c1` (stereo not drawn) [Example 69, 3-cyclopropyl-3-(3-(((5-(2,2-dimethylpropyl)-6-(2-fluoro-5-isopropoxyphenyl)pyridin-3-yl)oxy)methyl)phenyl)propanoic acid], for which the activation at 1 µM worked out at 61%.

In the case of `COc1ccc(OC)c(-c2ncc(OCc3cccc(C(CC(=O)O)C4CC4)c3)cc2CC(C)(C)C)c1` (stereo not drawn) [Example 53, 3-cyclopropyl-3-(3-(((6-(2,5-dimethoxyphenyl)-5-(2,2-dimethylpropyl)pyridin-3-yl)oxy)methyl)phenyl)propanoic acid], the activation at 1 µM was found to be 99%. Then `COc1ccc(F)c(-c2ccc(OCc3cccc(C(CC(=O)O)C4CC4)c3)cc2-c2cnc(C)s2)c1` (stereo not drawn) [Example 19, 3-cyclopropyl-3-(3-(((2′-fluoro-5′-methoxy-2-(2-methyl-1,3-thiazol-5-yl)biphenyl-4-yl)oxy)methyl)phenyl)propanoic acid], with 120%; and `COc1ccc(F)c(-c2ccc(OCc3cccc(C(CC(=O)O)C4CC4)c3)cc2CC2(C)CCCC2)c1` (stereo not drawn) [Example 97, 3-cyclopropyl-3-(3-(((2′-fluoro-5′-methoxy-2-((1-methylcyclopentyl)methyl)biphenyl-4-yl)oxy)methyl)phenyl)propanoic acid], with 118%; and `CC(C)(C)Cc1cc(OCc2cccc(C(CC(=O)O)C3CC3)c2)cnc1-c1cc(O)ccc1F` (stereo not drawn) [Example 73, 3-cyclopropyl-3-(3-(((5-(2,2-dimethylpropyl)-6-(2-fluoro-5-hydroxyphenyl)pyridin-3-yl)oxy)methyl)phenyl)propanoic acid], with 123%. In turn, `COc1ccc(F)c(-c2ccc(OCc3cc(C(CC(=O)O)C4CC4)ncn3)nc2CC(C)(C)C)c1` (stereo not drawn) [Example 30, 3-cyclopropyl-3-(6-(((6-(2,2-dimethylpropyl)-5-(2-fluoro-5-methoxyphenyl)pyridin-2-yl)oxy)methyl)pyrimidin-4-yl)propanoic acid] gave an activation at 1 µM of 103%. In the case of `COc1ccc(F)c(-c2ccc(OCc3cccc(CCC(=O)O)c3)cc2CC(C)(C)C)c1` [Example 7, 3-(3-(((2-(2,2-dimethylpropyl)-2′-fluoro-5′-methoxybiphenyl-4-yl)oxy)methyl)phenyl)propanoic acid], the activation at 1 µM turned out to be 108%. For `COc1ccc(F)c(-c2ccc(OCc3cccc(C(CC(=O)O)C4CC4)c3)cc2CC(C)(C)C)c1` (stereo not drawn) [Example 3, 3-cyclopropyl-3-(3-(((2-(2,2-dimethylpropyl)-2′-fluoro-5′-methoxybiphenyl-4-yl)oxy)methyl)phenyl)propanoic acid] the value was 103%; for `COc1ccc(F)c(-c2ncc(OCc3cccc(C(CC(=O)O)C4CC4)c3)cc2CC(C)(C)C)c1` (stereo not drawn) [Example 22, 3-cyclopropyl-3-(3-(((5-(2,2-dimethylpropyl)-6-(2-fluoro-5-methoxyphenyl)pyridin-3-yl)oxy)methyl)phenyl)propanoic acid], 99%; for `COc1cc(-c2ncc(OCc3cccc(C(CC(=O)O)C4CC4)c3)cc2CC(C)(C)C)c(F)cn1` (stereo not drawn) [Example 57, 3-cyclopropyl-3-(3-(((3-(2,2-dimethylpropyl)-5′-fluoro-2′-methoxy-2,4′-bipyridin-5-yl)oxy)methyl)phenyl)propanoic acid], 106%. The compound `COc1ccc(F)c(-c2ccc(OCc3cccc(C(CC(=O)O)C4CC4)c3)cc2OCC(C)(C)C)c1` (stereo not drawn) [Example 38, 3-cyclopropyl-3-(3-(((2-(2,2-dimethylpropoxy)-2′-fluoro-5′-methoxybiphenyl-4-yl)oxy)methyl)phenyl)propanoic acid] displayed an activation at 1 µM of 111%. The compound `COc1ccc(F)c(-c2ccc(OCc3cccc(C(CC(=O)O)C4CC4)c3)cc2C(F)CC(C)(C)C)c1` (stereo not drawn) [Example 94, 3-cyclopropyl-3-(3-(((2′-fluoro-2-(1-fluoro-3,3-dimethylbutyl)-5′-methoxybiphenyl-4-yl)oxy)methyl)phenyl)propanoic acid] displayed an activation at 1 µM of 110%.

Values taken from US9382188B2, “Aromatic ring compound” (TAKEDA PHARMACEUTICAL COMPANY LIMITED, priority 2012, dated 2016).
